Experimental data published in article PMC4503722, “Novel Phenotypic Outcomes Identified for a Public Collection of Approved Drugs from a Publicly Accessible Panel of Assays” (PLoS ONE, 2015).

How the values were obtained:
[1] = system: endothelial tube formation in co-cultures of ECFCs and ADSCs treated with VEGF; assay: cells; format: cell-based, human
DLD-1 = assay: cells; format: cell-based
SW480 = assay: cells; format: cell-based
HCT116 = assay: cells; format: cell-based; details: basal
[2] = system: HCT116 cells treated with a GSK3β inhibitor; assay: cells; format: cell-based; details: for IC50/EC50, GSK3b inh pretreated_Viability ATP HCT116 (assay number 26): GSK3b inh pretreated
Colo320 = assay: cells; format: cell-based
HT-29 = assay: cells; format: cell-based
RKO = assay: cells; format: cell-based
SNU-C1 = assay: cells; format: cell-based
[3] = system: ECFC/ADSC co-culture cell nuclei number
[4] = assay number 26, GSK3b inhibitor pretreated
[5] = assay number 23, concentration response
[6] = assay number 24, concentration response
[7] = assay number 25, concentration response
[8] = assay number 26, GSK3b inhibitor pretreated, concentration response
[9] = assay number 27, concentration response
[10] = assay number 28, concentration response
[11] = assay number 29, concentration response
[12] = assay number 30, concentration response

CC/C=C\C/C=C\C/C=C\CCCCCCCC(=O)O [NCGC00091058-11]
IC50/EC50, VEGF_ADSC\ECFC Angio CD31 TubeArea (assay number 2) [1]: > 10 µM
IC50/EC50, Basal_Viability ATP DLD-1 (assay number 23) (DLD-1; basal): > 20 µM
IC50/EC50, Basal_Viability ATP SW480 (assay number 24) (SW480; basal): > 20 µM
IC50/EC50, Basal_Viability ATP HCT116 (assay number 25) (HCT116): > 20 µM
IC50/EC50, GSK3b inh pretreated_Viability ATP HCT116 (assay number 26) [2]: > 20 µM
IC50/EC50, Basal_Viability ATP Colo 320 (assay number 27) (Colo320; basal): > 20 µM
IC50/EC50, Basal_Viability ATP HT-29 (assay number 28) (HT-29; basal): > 20 µM
IC50/EC50, Basal_Viability ATP RKO (assay number 29) (RKO; basal): > 20 µM
IC50/EC50, Basal_Viability ATP SNU-C1 (assay number 30) (SNU-C1; basal): > 20 µM
IC50/EC50, VEGF_ADSC\ECFC Angio Hoechst NucArea (assay number 3) [3]: > 10 µM

COCC(C)N(C(=O)CCl)c1c(C)csc1C (centres unmarked) [NCGC00163935-05]
VEGF_ADSC\ECFC Angio CD31 TubeArea IC50/EC50 [1]: > 10 µM
Basal_Viability ATP DLD-1 IC50/EC50 (DLD-1; assay number 23, basal): > 20 µM
Basal_Viability ATP SW480 IC50/EC50 (SW480; assay number 24, basal): > 20 µM
Basal_Viability ATP HCT116 IC50/EC50 (HCT116; assay number 25): > 20 µM
GSK3b inh pretreated_Viability ATP HCT116 IC50/EC50 [2, 4]: > 20 µM
Basal_Viability ATP Colo 320 IC50/EC50 (Colo320; assay number 27, basal): > 20 µM
Basal_Viability ATP HT-29 IC50/EC50 (HT-29; assay number 28, basal): > 20 µM
Basal_Viability ATP RKO IC50/EC50 (RKO; assay number 29, basal): > 20 µM
Basal_Viability ATP SNU-C1 IC50/EC50 (SNU-C1; assay number 30, basal): > 20 µM
VEGF_ADSC\ECFC Angio Hoechst NucArea IC50/EC50 [3]: > 10 µM

CC(C)[C@@H]1CC[C@@H](C)C[C@H]1OC(=O)c1ccccc1O [NCGC00181042-02]
VEGF_ADSC\ECFC Angio CD31 TubeArea IC50/EC50 [1]: > 10 µM
Basal_Viability ATP DLD-1 IC50/EC50 (DLD-1; [5]): > 20 µM
Basal_Viability ATP SW480 IC50/EC50 (SW480; [6]): > 20 µM
Basal_Viability ATP HCT116 IC50/EC50 (HCT116; [7]): > 20 µM
GSK3b inh pretreated_Viability ATP HCT116 IC50/EC50 [2, 8]: > 20 µM
Basal_Viability ATP Colo 320 IC50/EC50 (Colo320; [9]): > 20 µM
Basal_Viability ATP HT-29 IC50/EC50 (HT-29; [10]): > 20 µM
Basal_Viability ATP RKO IC50/EC50 (RKO; [11]): > 20 µM
Basal_Viability ATP SNU-C1 IC50/EC50 (SNU-C1; [12]): > 20 µM
VEGF_ADSC\ECFC Angio Hoechst NucArea IC50/EC50 [3]: > 10 µM

CC1=C(/C=C/C(C)=C/C=C/C(C)=C/C(=O)Nc2ccc(O)cc2)C(C)(C)CCC1 [NCGC00090752-12]
IC50/EC50, VEGF_ADSC\ECFC Angio CD31 TubeArea (assay number 2) [1]: 1.3414 µM
IC50/EC50, Basal_Viability ATP DLD-1 (assay number 23) (DLD-1; basal): 9.4899 µM
IC50/EC50, Basal_Viability ATP SW480 (assay number 24) (SW480; basal): 4.8504 µM
IC50/EC50, Basal_Viability ATP HCT116 (assay number 25) (HCT116): 5.2999 µM
IC50/EC50, GSK3b inh pretreated_Viability ATP HCT116 (assay number 26) [2]: 4.9507 µM
IC50/EC50, Basal_Viability ATP Colo 320 (assay number 27) (Colo320; basal): 3.2421 µM
IC50/EC50, Basal_Viability ATP HT-29 (assay number 28) (HT-29; basal): 2.1199 µM
IC50/EC50, Basal_Viability ATP RKO (assay number 29) (RKO; basal): 1.718 µM
IC50/EC50, Basal_Viability ATP SNU-C1 (assay number 30) (SNU-C1; basal): 6.6943 µM
IC50/EC50, VEGF_ADSC\ECFC Angio Hoechst NucArea (assay number 3) [3]: 6.2365 µM

O=C(Nc1ccc(Cl)cc1)Nc1ccc(Cl)c(Cl)c1 [NCGC00164034-05]
IC50 ([1]; read-out: VEGF_ADSC\ECFC Angio CD31 TubeArea summarized IC50): > 10 µM
IC50 (DLD-1; assay number 23, basal, read-out: Basal_Viability ATP DLD-1 summarized IC50): 0.323 µM
IC50 (SW480; assay number 24, basal, read-out: Basal_Viability ATP SW480 summarized IC50): 0.897 µM
IC50 (HCT116; assay number 25, read-out: Basal_Viability ATP HCT116 summarized IC50): 0.228 µM
IC50 ([2]; assay number 26, GSK3b inhibitor pretreated, read-out: GSK3b inh pretreated_Viability ATP HCT116 summarized IC50): 0.362 µM
IC50 (Colo320; assay number 27, basal, read-out: Basal_Viability ATP Colo 320 summarized IC50): 0.362 µM
IC50 (HT-29; assay number 28, basal, read-out: Basal_Viability ATP HT-29 summarized IC50): 0.383 µM
IC50 (RKO; assay number 29, basal, read-out: Basal_Viability ATP RKO summarized IC50): 0.288 µM
IC50 (SNU-C1; assay number 30, basal, read-out: Basal_Viability ATP SNU-C1 summarized IC50): 0.335 µM
IC50 ([3]; read-out: VEGF_ADSC\ECFC Angio Hoechst NucArea summarized IC50): > 10 µM

C=CCCCCCCCCC(=O)OC [NCGC00166231-02]
VEGF_ADSC\ECFC Angio CD31 TubeArea IC50/EC50 [1]: > 10 µM
Basal_Viability ATP DLD-1 IC50/EC50 (DLD-1; [5]): > 20 µM
Basal_Viability ATP SW480 IC50/EC50 (SW480; [6]): > 20 µM
Basal_Viability ATP HCT116 IC50/EC50 (HCT116; [7]): > 20 µM
GSK3b inh pretreated_Viability ATP HCT116 IC50/EC50 [2, 8]: > 20 µM
Basal_Viability ATP Colo 320 IC50/EC50 (Colo320; [9]): > 20 µM
Basal_Viability ATP HT-29 IC50/EC50 (HT-29; [10]): > 20 µM
Basal_Viability ATP RKO IC50/EC50 (RKO; [11]): > 20 µM
Basal_Viability ATP SNU-C1 IC50/EC50 (SNU-C1; [12]): > 20 µM
VEGF_ADSC\ECFC Angio Hoechst NucArea IC50/EC50 [3]: > 10 µM

CSc1ccc2c(c1)N(CCC1CCCCN1C)c1ccccc1S2 (centres unmarked) [NCGC00016059-13]
VEGF_ADSC\ECFC Angio CD31 TubeArea IC50/EC50 [1]: > 10 µM
Basal_Viability ATP DLD-1 IC50/EC50 (DLD-1; assay number 23, basal): > 20 µM
Basal_Viability ATP SW480 IC50/EC50 (SW480; assay number 24, basal): 3.7076 µM
Basal_Viability ATP HCT116 IC50/EC50 (HCT116; assay number 25): > 20 µM
GSK3b inh pretreated_Viability ATP HCT116 IC50/EC50 [2, 4]: 8.1146 µM
Basal_Viability ATP Colo 320 IC50/EC50 (Colo320; assay number 27, basal): 7.9244 µM
Basal_Viability ATP HT-29 IC50/EC50 (HT-29; assay number 28, basal): 5.8969 µM
Basal_Viability ATP RKO IC50/EC50 (RKO; assay number 29, basal): 5.4868 µM
Basal_Viability ATP SNU-C1 IC50/EC50 (SNU-C1; assay number 30, basal): 2.905 µM
VEGF_ADSC\ECFC Angio Hoechst NucArea IC50/EC50 [3]: 9.242 µM

O=C([O-])CCC(=O)OC[C@@H](NC(=O)C(Cl)Cl)[C@H](O)c1ccc([N+](=O)[O-])cc1.[Na+] [NCGC00094619-06]
VEGF_ADSC\ECFC Angio CD31 TubeArea IC50/EC50 [1]: > 10 µM
Basal_Viability ATP DLD-1 IC50/EC50 (DLD-1; [5]): > 20 µM
Basal_Viability ATP SW480 IC50/EC50 (SW480; [6]): > 20 µM
Basal_Viability ATP HCT116 IC50/EC50 (HCT116; [7]): > 20 µM
GSK3b inh pretreated_Viability ATP HCT116 IC50/EC50 [2, 8]: > 20 µM
Basal_Viability ATP Colo 320 IC50/EC50 (Colo320; [9]): > 20 µM
Basal_Viability ATP HT-29 IC50/EC50 (HT-29; [10]): > 20 µM
Basal_Viability ATP RKO IC50/EC50 (RKO; [11]): > 20 µM
Basal_Viability ATP SNU-C1 IC50/EC50 (SNU-C1; [12]): > 20 µM
VEGF_ADSC\ECFC Angio Hoechst NucArea IC50/EC50 [3]: > 10 µM
